PMC11402852, “Genotoxicity of selected cannabinoids in human lymphoblastoid TK6 cells” (Archives of Toxicology, 2024)
Read-outs that look alike come from different tables or passages of the source.

What was measured:
TK6 cells [1] = test: Cell cycle analysis (flow cytometry, DAPI); type: cell-based, human
Method: The cells were treated with CBG 30 µM, CBD 15 µM, CBC 15 µM, CBDV 40 µM, and CBN 15 µM for 6 or 24 h. The positive control was vincristine sulphate in a concentration of 0.0121 µM for 6 h of exposure and 0.0061 µM for 24 h. The solvent control was DMSO. Furthermore, experiments with the addition of S9 mix were performed with CBDV. In these experiments, cells were treated with CBDV (40 µM) with or without 0.25% S9 mix for 6 h. DMSO with or without the S9 mix was used as control, and the positive control was the same as mentioned above. After the treatment, cells were collected, washed twice with phosphate buffered saline (PBS) and fixed with 70% ethanol for 30 min on ice. Following each described step above, cells were centrifuged at 1000 rpm, 5 min, and 4 °C. Lastly, cells were resuspended in 1% bovine serum albumin (BSA) in PBS solution and stained with DAPI in a final concentration of 1 µg/mL for 30 min on ice. The cell distribution in different cell cycle phases was analyzed with MACSQuant® Analyzer 16 Flow Cytometer using a 450/50 nm filter and MACSQuantify™ Software 2.13 (Miltenyi Biotec, Bergisch Gladbach, Germany). For each sample, 20 000 events were analyzed. Four independent experiments were performed for 6 h of treatment without metabolic activation. Three independent experiments were done for 24 h of treatment without metabolic activation and 6 h of treatment with metabolic activation.

[2] = test system: human lymphoblastoid TK6 cells; test: Kinetochore analysis of micronuclei; type: cell-based; details: 4 h; for Kinetochore (+) MNi, %: of 200 micronuclei, CBG 30 µM, CBD 15 µM, CBC 15 µM, CBDV 40 µM, CBN 15 µM, MMS 40 µM, vincristine 0.0121 µM, one experiment
Method: For kinetochore analysis, cells were treated for 4 h with CBG 30 µM, CBD 15 µM, CBC 15 µM, CBDV 40 µM, and CBN 15 µM. The positive controls were MMS 40 µM, and vincristine sulphate 0.0121 µM; the solvent control was DMSO. After 4 h of treatment, the culture medium was renewed, and cells were exposed for 24 h to the cytokinesis inhibitor cytochalasin B (3 μg/mL). Then, cells were harvested, and slides were prepared with cytospin centrifugation. The cells were fixed in ice-cold methanol for 2 h. Kinetochores were stained overnight with undiluted primary anti-centromere antibody at 37 °C followed by 1:20 diluted FITC-conjugated secondary antibody at 37 °C for 2 h. Nuclei were counterstained with Hoechst 33,258 (5 µg/mL, 3 min). The experiment was performed one time. Per compound, 200 micronuclei were evaluated for kinetochore signal presence (Fig. 3). The evaluation was performed with a Keyence BZ-X800 microscope. The slides used in kinetochore evaluation were also evaluated for the number of induced micronuclei as described in the above paragraph cytokinesis‑block micronucleus assay.

[3] = test system: human lymphoblastoid TK6 cells; test: Cytokinesis-block micronucleus (CBMN) assay; details: for BMDL (10th percentile): 10th percentile of BMD50 estimation; for BMDL (10th percentile) / BMDU (90th percentile) / Number of micronuclei with S9 mix vs without: 4 h; for BMDL (10th percentile) / BMDU (90th percentile): micronucleus data; for 4 h BMD50: 50% increased relative genotoxicity vs controls, from micronucleus data, without S9, Bayesian BMD analysis; for 4 h BMD50 / Micronucleus induction: 4 h treatment; for BMDU (90th percentile): 90th percentile of BMD50 estimation; for Number of micronuclei with S9 mix vs without: CBG 30 µM, CBD 15 µM, CBC 15 µM, CBDV 40 µM, CBN 15 µM, 0.25% S9 mix; for Micronucleus induction: without metabolic activation, at least one concentration, vs solvent control
[4] = set-up: method as in Peters et al. [2022]; details: after consuming medical cannabis oil, ref Peters et al. [2022], cited from earlier work
TK6 cells [5] = test: Tubulin visualization; type: cell-based, human; details: 6 h; CBG 30 µM, CBD 15 µM, CBC 15 µM, CBN 15 µM; visually compared to control, not quantified
Method: For tubulin visualization, cells were treated with CBG 30 µM, CBD 15 µM, CBC 15 µM, CBDV 40 µM, and CBN 15 µM. The positive control was vincristine sulphate 0.0121 µM, and the solvent control was DMSO. Cells were treated for 6 h and then harvested. Slides were prepared with cytospin centrifugation. The cells were fixed in ice-cold methanol for 2 h. Following fixation, cells were permeabilized with 0.1% Tween20 in 1 × phosphate-buffered saline (PBS) for 5 min. Next, the anti-α-tubulin antibody was applied in 1:50 dilution. Antibody was diluted with 5% FCS in 1 × PBS. The antibody was incubated in a humid chamber at 4 °C for 24 h. Afterwards, the antibody was removed by washing slides twice with 0.5% Tween20 in 1 × PBS for 5 min. Nuclei were counterstained with Hoechst 33,258 (5 µg/mL, 3 min). The visualization was performed with a Keyence BZ-X800 microscope.

[6] = test system: adult neural stem/progenitor cells; set-up: method as in Lourenço et al. ([2023]); details: 7 days of exposure; phase not indicated; ref Lourenço et al. ([2023]); cited from earlier work
[7] = set-up: method as in Hurley et al. ([2022]); details: epilepsy treatment in children, ref Hurley et al. ([2022]), cited from earlier work
[8] = test system: human buccal cell line TR146; set-up: method as in Russo et al. ([2019]); details: TR146, after 3 and 24 h; ref Russo et al. ([2019]); cited from earlier work
[9] = test system: human lymphoblastoid TK6 cells; details: for 4 h BMD50 / BMDL (10th percentile) / BMDU (90th percentile): human, 4 h
[10] = test system: human mesothelioma, cholangiocellular carcinoma and ovarian carcinoma cell lines; set-up: method as in earlier work; details: 24 h of treatment; correlates with decrease of cell percentage in S phase; ref Viereckl et al. [2022]; Colvin et al. [2022]; Sooda et al. [2023]; cited from earlier work
[11] = frequent Cannabis smokers, inhalation, ref Newmeyer et al. [2016], cited from earlier work; for Cmax: read-out: Mean maximum concentration (Cmax) in blood
TK6 cells [12] = test: Mitotic disturbance assay; type: cell-based, human; details: 6 h, without S9; CBG 30 µM, CBD 15 µM, CBC 15 µM, CBDV 40 µM, CBN 15 µM; vs solvent control
Method: The cells were treated for 6 h with CBG 30 µM, CBD 15 µM, CBC 15 µM, CBDV 40 µM, and CBN 15 µM. The positive control was vincristine sulphate 0.0121 µM, and the solvent control was DMSO. For the experiments with or without the S9 mix (final concentration 0.25%), TK6 cells were treated with either CBDV 40 µM or vincristine sulphate 10 ng/mL for 6 h. DMSO with or without S9 mix was used as control. Further procedure was as described for micronucleus experiments, except with direct harvest after cannabinoid treatment without the incubation period with cytochalasin B. Two slides were evaluated with a Nikon Eclipse 55i fluorescent microscope for each experimental condition. The independent experiments were conducted three times.
The cells were counted in categories apoptosis, interphase, prophase, metaphase, anaphase-telophase, disturbed metaphase, and disturbed anaphase-telophase in 1000 cells. The mitotic index was calculated as a sum of the number of cells in prophase, metaphase, anaphase-telophase, disturbed metaphase, and disturbed anaphase-telophase in 1000 cells. Disturbed metaphase and disturbed anaphase-telophase were defined as deviating from the usual appearance of mitoses. Disturbed mitoses were assessed in 100 mitotic cells per slide.

[13] = set-up: method as in Zhong et al. [2023]; details: depending on the cell line; downregulating CDK1, CDK2 and cyclin E; ref Zhong et al. [2023]; cited from earlier work
[14] = 6 h, without S9, CBG 30 µM, CBD 15 µM, CBC 15 µM, CBDV 40 µM, CBN 15 µM
[15] = treatment – control (basal level of micronuclei subtracted), same concentrations

## CCCCCc1cc(O)c2c(c1)OC(C)(CCC=C(C)C)C=C2 (centres unmarked) [CBC, cannabichromene]
TK6 cells [1]; [14]
  Cell cycle distribution, 6 h: no significant changes in the normal cell cycle distribution
TK6 cells [1]; TK6, CBC 15 µM, CBN 15 µM, 6 or 24 h
  Cell cycle distribution (time not given): did not observe a change in cell cycle distribution
[2]
  Kinetochore (+) MNi, %: 48.5%
[2]; [15]
  Kinetochore (+) induced MNi: 69.7%
[3]
  BMDL (10th percentile): 2.5 µM
  4 h BMD50: 9.8 µM
  BMDU (90th percentile): 34.5 µM
  Number of micronuclei with S9 mix vs without: reduced as well, but not significantly
  Micronucleus induction: significant induction of micronuclei
[4]
  Mean Cmax concentration in plasma: 6.6 ng/mL
[4]; read-out: Mean Cmax concentration in plasma
  Cmax: 21 nM
TK6 cells [5]
  Multipolar and monopolar tubulin aggregation: observed more frequently

## C=C(C)[C@@H]1CCC(C)=C[C@H]1c1c(O)cc(CCC)cc1O [CBDV, cannabidivarin]
[6]
  Cell cycle effect: induced cell cycle arrest
[7]
  Mean plasma Cmax: 7.4 ng/mL
[7]; read-out: Mean plasma Cmax
  Cmax: 25.8 nM
TK6 cells [1]; human, 6 h, 40 µM
  Cell cycle distribution, 6 h: slight non-significant rise in cell percentage in the G1 phase
  Cell cycle distribution, absence or presence of metabolic enzymes: cell accumulation in the G1 phase
[2]; human
  Kinetochore (+) induced MNi: 69.8%
[8]
  DNA damage (comet assay): had the same effect on the cells as CBD
[9]
  Micronucleus induction: induced micronuclei only after metabolic activation
  Number of micronuclei with S9 mix vs without: significant rise in micronuclei frequency
  4 h BMD50: 15.3 µM
  BMDL (10th percentile): 1.4 µM
  BMDU (90th percentile): 102.9 µM

## CCCCCc1cc(O)c(C/C=C(\C)CCC=C(C)C)c(O)c1 [CBG, cannabigerol]
[10]
  Cell cycle effect: arresting cells in the G0/G1 phase
[2]; human
  Kinetochore (+) induced MNi: 61.5%
[9]
  Micronucleus induction: significant induction of micronuclei
  Number of micronuclei with S9 mix vs without: significant reduction in the number of micronuclei
  4 h BMD50: 20.5 µM
  BMDL (10th percentile): 3.9 µM
  BMDU (90th percentile): 64.1 µM
[11]
  Mean maximum concentration (Cmax) in blood: 6.9 ng/mL
  Cmax: 21.8 nM

## CCCCCc1cc(O)c2c(c1)OC(C)(C)c1ccc(C)cc1-2 [CBN, cannabinol]
TK6 cells [12]
  Mitotic index: significantly decreased the mitotic index
TK6 cells [1]; [14]
  Cell cycle distribution, 6 h: no significant changes in the normal cell cycle distribution
[2]
  Kinetochore (+) MNi, %: 46%
[2]; [15]
  Kinetochore (+) induced MNi: 63.3%
[3]
  BMDL (10th percentile): 2.7 µM
  4 h BMD50: 8.4 µM
  BMDU (90th percentile): 16.9 µM
  Number of micronuclei with S9 mix vs without: significant reduction in the number of micronuclei
  Micronucleus induction: significant induction of micronuclei
[13]
  Cell cycle effect: cell cycle arrest in either the G0/G1 phase or S phase
TK6 cells [5]
  Multipolar and monopolar tubulin aggregation: observed more frequently
[11]
  Cmax: 37.4 nM

## COS(C)(=O)=O [MMS, methyl methane sulfonate, reference compound]
[2]
  Kinetochore (+) MNi, %: 38%
[2]; [15]
  Kinetochore (+) induced MNi: 41.9%
